± gives the expanded uncertainty stated by the source.

This is an account of results in the NIST ThermoML archive (doi:10.1021/acs.jced.8b00124).

The conditions of series [1]: Crystal; DTA.
Series [2] can be described thus: Molar enthalpy of transition or fusion. The settings on record: Crystal; DSC.

As for `Cc1cc(C)nc(Nc2ccccc2)n1` [2-anilino-4,6-dimethylpyrimidine], the Normal melting temperature in series [1] turned out to be 96.14 ± 1.1 °C. Moreover, the “Molar enthalpy of transition or fusion” value in series [2] is 6.08 ± 0.263 kcal/mol.
